1 compound from BindingDB's records for patent US10308652 (Bristol-Myers Squibb, 2019) can be followed below.

SMILES strings stand for the structures.

This assay addresses Tumor necrosis factor (Homo sapiens, UniProt P01375). The experiment in a line: TNF induced HEK-Blue assay. Here is the method:
Test compounds serially diluted in DMSO were plated in an assay plate (Labcyte, Cat. #LP-0200) at final concentrations ranging from 0.004 μM to 25μM. TNFα (final concentration 0.5 ng/ml) or CD4OL (final concentration 30 ng/ml) in assay buffer [DMEM, 4.5 g/l glucose (Gibco, Cat. 21063-029), 10% FBS (Sigma, F4135), 1% Penicillin-Streptomycin (Gibco, Cat. 15140-122), 1% Anti-Anti (Gibco, Cat. 15240-112) and 2 mM L-glutamine (Gibco, Cat. 25030-081)] was then added to the assay plate. After a 30 minute pre-incubation at 37° C. and 5% CO2, HEK-Blue-CD40L cells (InvivoGen, Cat. Code hkb-cd40) containing a NF-κB-driven secreted alkaline phosphatase reporter gene were seeded into the assay plate at a density of 20,000 cells per well. This plate was then incubated for 18 h at 37° C. and 5% CO2. Secreted alkaline phosphatase expression was measured using QUANTI-Blue (InvivoGen, Cat. Code rep-qb1) according to manufacturer's specifications and the assay plate was read on a PerkinElmer Envision at 620 nm.

Sequence of Tumor necrosis factor (P01375 whole entry): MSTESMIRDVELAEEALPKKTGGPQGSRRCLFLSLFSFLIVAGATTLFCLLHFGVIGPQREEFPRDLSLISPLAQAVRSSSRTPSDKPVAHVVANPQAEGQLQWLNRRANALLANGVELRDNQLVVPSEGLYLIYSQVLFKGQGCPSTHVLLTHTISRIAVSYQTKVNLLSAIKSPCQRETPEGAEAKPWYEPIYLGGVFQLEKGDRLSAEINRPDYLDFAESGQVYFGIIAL

As usually defined, the IC50 is the concentration at which inhibition is half-maximal. On to `CC(C)(O)c1ccc(-c2ccc3nc4c(n3n2)[C@@H](c2ccccc2OC(F)F)NC[C@H]4O)cc1` [US10308652, Example 6], for which the IC50 was less than 1000 nM.
